In series [1] the target is hERG (KCNH2) (Homo sapiens, UniProt Q12809). Description: Displacement of tracer red from human ERG at 10 uM by fluorescence polarization assay relative to control. The note with it: probe tracer red. On the technique in general: Polarisation of emitted light reports the rotation of a fluorescent probe.
Series [2] is described as follows: Cytotoxicity against mouse HT22 cells assessed as cell viability at 10 uM measured after 18 hrs by MTT assay relative to control. The format is cell-based, HT-22. The conditions noted are these: read-out: Activity. In general terms: Formazan colour is commonly taken as a measure of viable cells.
For series [3], the species on record is Mus musculus. Description: animal or person. The conditions noted are these: ICR, central, 24 h, read-out: INH.
Series [4] is filed under the species Mus musculus. The note with it: ICR, 25 mg/kg.
Series [5] in a line: Stability in human liver microsomes assessed as parent compound remaining measured after 30 mins. The format is ADME, Microsome. The note with it: read-out: Stability. A general note: Liver microsomes are vesicles of endoplasmic reticulum, rich in cytochrome P450 enzymes.
The subject of series [6] is Mus musculus. Description: Neuroprotection in human amyloid beta (3 to 40 residues)-induced ICR mouse model of Alzheimer's disease assessed as inhibition of human amyloid beta N3pE-40 level in brain at 25 mg/kg, ip measured after 24 hrs by sandwich ELISA relative to control. The format is functional.
Series [7] is described as follows: Stability in mouse liver microsomes assessed as parent compound remaining measured after 30 mins. The format is ADME, Microsome. The note with it: read-out: Stability.

The text below walks through data of ChEMBL document CHEMBL4373720, “Discovery of Conformationally Restricted Human Glutaminyl Cyclase Inhibitors as Potent Anti-Alzheimer's Agents by Structure-Based Design” (J Med Chem, 2019).

SMILES strings stand for the structures. Calls of active or inactive are those of the source. The calls are words filed in the database; no cut-off is given here.

Chain of hERG (KCNH2) (Q12809 whole entry): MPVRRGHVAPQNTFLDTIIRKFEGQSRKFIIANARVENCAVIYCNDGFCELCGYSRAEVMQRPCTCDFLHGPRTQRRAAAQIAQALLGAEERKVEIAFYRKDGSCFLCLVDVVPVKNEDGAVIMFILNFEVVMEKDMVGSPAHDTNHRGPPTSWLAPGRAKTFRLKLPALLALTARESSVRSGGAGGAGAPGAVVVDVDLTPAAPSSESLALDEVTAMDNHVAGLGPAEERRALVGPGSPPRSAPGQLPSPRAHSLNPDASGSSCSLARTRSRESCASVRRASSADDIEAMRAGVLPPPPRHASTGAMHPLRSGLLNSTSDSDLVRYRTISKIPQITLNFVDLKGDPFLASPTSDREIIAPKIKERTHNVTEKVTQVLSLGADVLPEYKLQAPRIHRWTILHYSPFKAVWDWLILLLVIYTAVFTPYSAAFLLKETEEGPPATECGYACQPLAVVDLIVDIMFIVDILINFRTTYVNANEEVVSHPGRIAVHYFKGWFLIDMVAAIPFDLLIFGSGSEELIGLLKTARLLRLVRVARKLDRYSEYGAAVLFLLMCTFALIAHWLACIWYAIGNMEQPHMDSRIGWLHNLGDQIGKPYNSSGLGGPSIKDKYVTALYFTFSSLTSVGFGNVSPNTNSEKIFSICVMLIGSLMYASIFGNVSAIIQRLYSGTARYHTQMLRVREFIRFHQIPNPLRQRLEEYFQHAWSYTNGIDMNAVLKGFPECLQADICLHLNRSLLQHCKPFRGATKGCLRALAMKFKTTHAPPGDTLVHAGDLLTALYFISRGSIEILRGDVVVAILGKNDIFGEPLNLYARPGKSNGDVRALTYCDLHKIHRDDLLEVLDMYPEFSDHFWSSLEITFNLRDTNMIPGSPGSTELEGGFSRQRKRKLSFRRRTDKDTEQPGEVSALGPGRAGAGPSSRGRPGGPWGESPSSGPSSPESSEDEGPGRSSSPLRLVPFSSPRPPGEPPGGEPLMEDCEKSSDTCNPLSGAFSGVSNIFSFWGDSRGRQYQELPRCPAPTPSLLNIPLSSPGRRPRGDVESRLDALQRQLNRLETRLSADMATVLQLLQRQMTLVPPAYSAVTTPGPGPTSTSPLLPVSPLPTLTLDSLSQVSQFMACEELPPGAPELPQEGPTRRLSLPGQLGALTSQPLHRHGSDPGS

`COc1ccc(N(C(=S)NCCCn2cncc2C)C2CCCC2)cc1OC`: the inhibition at 10 µM in series [1] is 31.8%. In addition, the viability at 18 h, 10 µM in series [2] is 81.7%. Further, the inhibition in vivo at 25 mg/kg in series [3] is 1.17%.

On to `CCN(C(=S)NCCCn1cncc1C)c1ccc(OC)c(OC)c1`, for which the viability at 18 h, 10 µM in series [2] turned out to be 88.4%. Further, the inhibition result in series [4] was “inactive”.

For `COc1ccc(N(CC2CCCC2)C(=S)NCCCn2cncc2C)cc1OC`, the inhibition at 10 µM in series [1] came to 60%. In series [2], the viability at 18 h, 10 µM was 100%. Moreover, the inhibition in vivo at 25 mg/kg in series [3] was 2.96%.

`COc1ccc(N(CCCCc2ccnc(NCCN)c2)C(=O)NCCCn2cncc2C)cc1OC` registered an inhibition at 10 µM in series [1] of 40.8%. Moreover, in series [2], the viability at 18 h, 10 µM stood at 82.2%. The inhibition in vivo at 25 mg/kg in series [3] stood at 13.7%.

Turning to `COc1ccc(N(Cc2ccncc2)C(=S)NCCCn2cncc2C)cc1OC`, in series [1], testing at 10 µM gave an inhibition of 32.3%. Besides, the viability at 18 h, 10 µM in series [2] came out at 100%. Besides, the inhibition in vivo at 25 mg/kg in series [3] was found to be 11.6%.

With `COc1ccc(N(Cc2cccnc2)C(=S)NCCCn2cncc2C)cc1OC`, in series [1], at 10 µM the inhibition was 34.5%. Besides, in series [2], the viability at 18 h, 10 µM was determined as 89.3%. In series [3], the inhibition in vivo at 25 mg/kg was 5.31%.

In series [1], `COc1ccc(N(CCCCc2ccnc(N)c2)C(=O)NCCCn2cncc2C)cc1OC` came in with an inhibition at 10 µM of 48%. For the same compound, the results for the remaining at 0.5 h in series [5] and in series [7] were 43.1% and 21.6%, respectively. For the same compound, the viability at 18 h, 10 µM in series [2] is 100%. In addition, the inhibition in vivo at 25 mg/kg in series [6] was 22.7%; in series [3] it was 24.4%.

As to `COc1ccc(N(Cc2ccccc2)C(=S)NCCCn2cncc2C)cc1OC`, at 10 µM the inhibition in series [1] was 71.5%. Also, in series [2], the viability at 18 h, 10 µM was found to be 80.4%. Further, the inhibition in vivo at 25 mg/kg in series [3] was 15.3%.

In turn, `COc1ccc(N(CC(C)C)C(=O)NCCCn2cncc2C)cc1OC` came in with an inhibition at 10 µM in series [1] of 23.7%. Moreover, in series [2], the viability at 18 h, 10 µM is 100%. In series [4], the inhibition entry was “inactive”.

For `COc1ccc(N(Cc2cccc(Cl)c2)C(=S)NCCCn2cncc2C)cc1OC`, the inhibition at 10 µM in series [1] stood at 86%. For the same compound, in series [2], the viability at 18 h, 10 µM is 88.2%. Further, the inhibition entry in series [4] is “inactive”.

For `COc1ccc(N(CC2CCCC2)C(=O)NCCCn2cncc2C)cc1OC`, in series [1], at 10 µM the inhibition was 29.6%. Also, the viability at 18 h, 10 µM in series [2] is 100%. The inhibition in vivo at 25 mg/kg in series [3] is 2.96%.

`COc1ccc(N(C(=S)NCCCn2cncc2C)C2CCCCC2)cc1OC` displayed an inhibition at 10 µM in series [1] of 59.4%. The viability at 18 h, 10 µM in series [2] turned out to be 78.3%. Besides, in series [3], the inhibition in vivo at 25 mg/kg came out at 4.01%.

Regarding `COc1ccc(N(CC(C)C)C(=S)NCCCn2cncc2C)cc1OC`, the inhibition at 10 µM in series [1] came to 39.9%. In series [2], the viability at 18 h, 10 µM stood at 100%. Also, the inhibition entry in series [4] was “inactive”.

`COc1ccc(N(Cc2cccnc2)C(=O)NCCCn2cncc2C)cc1OC`: the inhibition at 10 µM in series [1] was 33.2%. In addition, the values for the remaining at 0.5 h in series [5] and in series [7] were 44% and 12.8%, respectively. Also, the viability at 18 h, 10 µM in series [2] was 100%. The inhibition in vivo at 25 mg/kg came out at 22.9% in series [6] and 26% in series [3].

As for `COc1ccc(N(Cc2cccc(F)c2)C(=S)NCCCn2cncc2C)cc1OC`, the inhibition at 10 µM in series [1] came to 77.6%. The viability at 18 h, 10 µM in series [2] was found to be 91.7%. Also, in series [3], the inhibition in vivo at 25 mg/kg is 6.66%.

In series [1], `COc1ccc(N(Cc2ccc(F)cc2)C(=O)NCCCn2cncc2C)cc1OC` came in with an inhibition at 10 µM of 40.6%. The viability at 18 h, 10 µM in series [2] amounted to 90.7%. For the same compound, in series [4], the inhibition result was “inactive”.

Regarding `COc1ccc(N(Cc2ccc(F)cc2)C(=S)NCCCn2cncc2C)cc1OC`, in series [1], the inhibition at 10 µM is 83.5%. The viability at 18 h, 10 µM in series [2] is 100%. Moreover, the inhibition result in series [4] was “inactive”.

`COc1ccc(N(C(=S)NCCCn2cncc2C)C(C)C)cc1OC` had an inhibition at 10 µM in series [1] of 46.3%. In series [2], the viability at 18 h, 10 µM was determined as 100%. In addition, the inhibition in vivo at 25 mg/kg in series [3] was found to be 6%.

Regarding `COc1ccc(N(C(=S)NCCCn2cncc2C)C2CCC2)cc1OC`, the inhibition at 10 µM in series [1] stood at 11.5%. The viability at 18 h, 10 µM in series [2] turned out to be 86.7%. Besides, in series [4], the inhibition result is “inactive”.

`COc1ccc(N(C(=O)NCCCn2cncc2C)C2CCCCC2)cc1OC` displayed an inhibition at 10 µM in series [1] of 12.2%. Moreover, in series [2], the viability at 18 h, 10 µM stood at 88.6%. Moreover, the inhibition entry in series [4] was “inactive”.

As to `COc1ccc(N(Cc2ccc(Cl)cc2)C(=S)NCCCn2cncc2C)cc1OC`, testing at 10 µM in series [1] gave an inhibition of 86.8%. For the same compound, the viability at 18 h, 10 µM in series [2] was determined as 100%. In addition, in series [3], the inhibition in vivo at 25 mg/kg was determined as 0.73%.

As a reminder, the inhibition is the change of the read-out against control, counted positive when it falls.
